What all share (type): physicochemical
What all share (conditions): unprocessed API vs. co-processed prodrug/HPMC batches from Example 1

Data set [1] can be described thus: Bulk density of powder.
Data set [2] in a line: Tapped density of powder.
Data set [3] can be described thus: Powder flow.

Experimental findings from patent US20160102093A1, “CO-PROCESSING METHOD AND FORMULATION FOR HIV ATTACHMENT INHIBITOR PRODRUG COMPOUND AND EXCIPIENTS” (BRISTOL-MYERS SQUIBB COMPANY, priority 2011, published 2016) are described below.

Structures are written as SMILES.

On to `COc1cnc(-n2cnc(C)n2)c2c1c(C(=O)C(=O)N1CCN(C(=O)c3ccccc3)CC1)cn2COP(=O)(O)O` [API, 1-benzoyl-4-[2-[4-methoxy-7-(3-methyl-1H-1,2,4-triazol-1-yl)-1-[(phosphonooxy)methyl]-1H-pyrrolo[2,3-c]pyridin-3-yl]-1,2-dioxoethyl]-piperazine], for which, in data set [1], the “Bulk Density” value is given as 0.13 g/cc. In addition, in data set [2], the “Tapped Density” value is 0.23 g/cc. Moreover, in data set [3], the Flow result is “incomplete” and the “Volumetric Flow” value is “incomplete”.
